{"source": "patent US20170121402A1", "about": "“ORAL COMPOSITION OF ANTI-TNF ALPHA ANTIBODIES” (Laboratoire Français du Fractionnement et des …, priority 2014, published 2017)", "system": "interleukin-8 (IL-8) secretion by Caco-2 cells", "assay": "Anti-inflammatory effect on the Caco-2 line: IL-8 secretion after IL-1 beta activation, ELISA", "format": "cell-based, human", "settings": "differentiated Caco-2 cells (14 days), 24 h preculture with test agent, then 1 ng/ml IL-1 beta for 12 hours", "description": "Caco-2 cells, a colon cancer cell line, are an established cell model of the human intestinal epithelium (Pinto et al., 1983, Biol. Cell, 47, 323-330). These cells secrete interleukin-8 (IL-8), which is one of the major interleukins in the pathogenesis of inflammatory bowel diseases, after activation by interleukin-1 beta (IL-1 beta).\nThe inventors used the Caco-2 cell line as a model of epithelial cells, and evaluated the effect of compositions according to the invention on interleukin-8 (IL-8) secretion by these cells after activation by interleukin-1 beta (IL-1 beta).\nTo that end, Caco-2 cells, deposited in 24well plates, were cultured for 14 days until the cells were confluent and in a stable differentiation state. On day 14, the cells were precultured in the presence of caprylic acid, transgenically-produced anti-TNF antibody (adalimumab), and a combination of the two. Twenty-four hours later, the cells were stimulated with 1 ng/ml IL-1 beta for 12 hours. IL-8 levels present in the culture supernatants were measured by ELISA.", "data": [{"substance": "adalimumab [anti-TNF antibody]", "values": [{"measurement": "IL-8 levels present in the culture supernatants (IL-8 secretion)", "result": "induces a decrease in IL-8 levels"}]}]}
